In patent US7479492B2, “Use combined 5-HT1A agonists and selective serotonin reuptake inhibitors” (Merck Patent GmbH, priority 2000, dated 2009):

How the values were obtained:
[1] = system: writhing response induced by phenylbenzoquinone (PBQ) or acetic acid; experiment: Phenylbenzoquinone and acetic writhing tests in mice; format: in vivo, mouse; details: 30 mg/kg p.o., PBQ 1.25 mg/kg i.p. or acetic acid 0.5% i.p.
Method: 5. Phenylbenzoquinone and acetic writhing tests in mice follow the methods described by Hendershot et al (J. Pharmacol. Exp. Ther. 1959, 125: 237-240): Mice are injected with phenylbenzoquinone (PBQ) (1.25 mg/kg i.p.) or acetic acid (0.5% i.p.). This treatment induces a recognizable writhing response in control animals. The number of writhes is counted for 10 minutes beginning 5 minutes after injection of PBQ or acetic acid.

[2] = system: formalin-induced pain response (flinching); experiment: Formalin paw test in the mouse or rat; format: in vivo; details: 30 mg/kg p.o.; intraplantar 5% formalin
Method: 1. Formalin paw test in the mouse or rat accorrding to Wheeler-Aceto et al., (Psychopharmacology 1991, 104: 35-44): Animals are given an intraplantar injection of 5% formalin (25 μl for the mouse, 50 μl for the rat) into the posterior left paw. This treatment induces a recognizable flinching response in control animals. The number of flinches is counted for 10 minutes, beginning immediately after injection of formalin (early phase) and again for 5 minutes in mice or 15 minutes in rats, beginning 20 minutes after the injection.

Structure (SMILES): Cl.N#Cc1ccc2[nH]cc(CCCCN3CCN(c4ccc5oc(C(N)=O)cc5c4)CC3)c2c1 [1-[4-(5-cyanoindol-3-yl)butyl]-4-(2-carbamoyl-benzofuran-5-yl)-piperazine hydrochloride]
- reduction of writhes [1]: 82%
- reduction of the formalin-induced pain response [2]: 79%
